# Experimental data published in PMC11538350, “Synthetic studies on the tetrasubstituted D-ring of cystobactamids lead to potent terephthalic acid antibiotics” (Communications Chemistry, 2024).
# Key:
# [1] = metabolic stability assay, mouse microsomes; conditions: Table S4
# E. ae. CIP 106754 = assay: MIC assay; format: cell-based, Enterobacter aerogenes; conditions: Klebsiella aerogenes, CIP106754, read-out: MIC E. ae. CIP 106754
# Description: (§1) All cystobactamids were evaluated in MIC-assays on a panel of representative ESKAPE strains with focus on A. baumannii (Tables 1 and 2). Compared to our previous work[10],[17],[18], we specifically included more challenging test strains with known resistances against gyrase inhibitors.
# (§2) 2.1 Materials and Methods
# (§3) Strains were cultivated according to standard procedures. Bacterial cryo-cultures were
# (§4) resuspended into fresh MHBII (cation adjusted) medium. The resuspension
# (§5) assay plate (Corning, #3788).
# (§6) in parallel as a positive control. […]
# ESKAPE strains = assay: MIC-assays on a panel of representative ESKAPE strains, summary in words; format: cell-based; conditions: summary of the MIC tables
# Description: as §1, §2, §3, §4, §5, §6
# [2] = Description: 2.1 Materials and Methods […]
# Determination of in vitro ADME properties
# 7, 8, 11 and 42. All samples were analysed via HPLC -MS/MS.
# HPLC-MS/MS analysis of cystobactamids
# AB Sciex QTrap 6500plus mass spectrometer. LC conditions were as follows: column:
# Samples were run under acidic
# For plasma stability experiments, samples were procured from commercial sources.
# Human plasma was obtained from Antibodies-online (catalog no. ABIN5706569), and mouse plasma was obtained from Tebubio (catalog no. D408-04-0050).
# The methods were performed in accordance with relevant guidelines and regulations and approved by the Helmholtz Centre for Infection Research. […]
# [3] = metabolic stability assay, human microsomes; conditions: second microsome column of Table S4, head prints (M); mouse and human microsomes
# K. pneum. CIP-104298 = assay: MIC assay; format: cell-based; conditions: Klebsiella pneumoniae, CIP104298, read-out: MIC K. pneum. CIP-104298
# Description: as §1, §2, §3, §4, §5, §6
# S. aur. ATCC-29213 = assay: MIC assay; format: cell-based; conditions: Staphylococcus aureus, ATCC29213, read-out: MIC S. aur. ATCC-29213
# Description: as §1, §2, §3, §4, §5, §6
# K. pneum. R-1525 = assay: MIC assay; format: cell-based; conditions: Klebsiella pneumoniae, read-out: MIC K. pneum. R-1525
# Description: as §1, §2, §3, §4, §5, §6
# A. baum. CIP-105742 = assay: MIC assay; format: cell-based; conditions: Acinetobacter baumannii, CIP105742, read-out: MIC A. baum. CIP-105742
# Description: as §1, §2, §3, §4, §5, §6
# P. ae. PA14ΔmexAB = assay: MIC assay; format: cell-based; conditions: Pseudomonas aeruginosa, read-out: MIC P. ae. PA14ΔmexAB
# Description: as §1, §2, §3, §4, §5, §6
# E. cloacae ATCC BAA-2468 = assay: MIC assay; format: cell-based; conditions: Enterobacter cloacae, ATCCBAA2468, read-out: MIC E. cloacae ATCC BAA-2468
# Description: as §1, §2, §3, §4, §5, §6
# K. pneum. KP10581 = assay: MIC assay; format: cell-based; conditions: Klebsiella pneumoniae, read-out: MIC K. pneum. KP10581
# Description: as §1, §2, §3, §4, §5, §6
# [4] = system: S. pneum. DSM-11865 (PRSP); assay: MIC assay; format: cell-based; conditions: Streptococcus pneumoniae, read-out: MIC S. pneum. DSM-11865 (PRSP)
# Description: as §1, §2, §3, §4, §5, §6
# E. coli LM705 = assay: MIC assay; format: cell-based; conditions: Escherichia coli, LM705, read-out: MIC E. coli LM705
# Description: as §1, §2, §3, §4, §5, §6
# A. baum. R835 = assay: MIC assay; format: cell-based; conditions: Acinetobacter baumannii, read-out: MIC A. baum. R835
# Description: as §1, §2, §3, §4, §5, §6
# A. baum. ATCC BAA-1710 = assay: MIC assay; format: cell-based; conditions: Acinetobacter baumannii, ATCCBAA1710, read-out: MIC A. baum. ATCC BAA-1710
# Description: as §1, §2, §3, §4, §5, §6
# E. coli ATCC-25922 = assay: MIC assay; format: cell-based; conditions: Escherichia coli, ATCC25922, read-out: MIC E. coli ATCC-25922
# Description: as §1, §2, §3, §4, §5, §6
# A. baum. DSM-30008 = assay: MIC assay; format: cell-based; conditions: Acinetobacter baumannii, DSM30008, read-out: MIC A. baum. DSM-30008
# Description: as §1, §2, §3, §4, §5, §6
# A. baum. CIP-107292 = assay: MIC assay; format: cell-based; conditions: Acinetobacter baumannii, CIP107292, read-out: MIC A. baum. CIP-107292
# Description: as §1, §2, §3, §4, §5, §6
# P. ae. PA14 = assay: MIC assay; format: cell-based; conditions: Pseudomonas aeruginosa, PA14, read-out: MIC P. ae. PA14
# Description: as §1, §2, §3, §4, §5, §6
# [5] = PK study in mice after intravenous administration; format: in vivo, CD-1 mice; conditions: male, plasma
# Description: and approved by the Helmholtz Centre for Infection Research.
# Germany), 4-weeks-old, were used. The animal studies were conducted in accordance […]
# Verbraucherschutz und Lebensmittelsicherheit, Oldenburg, Germany.
# Then, plasma was transferred into a new Eppendorf tube and stored at -80°C until analysis.
# Bioanalysis of pharmacokinetic and pharmacodynamic samples […]
# mouse plasma from CD-1 mice. Glipizide was used as an internal standard. In addition, […]
# mixer. […] Supernatants were […]
# transferred to standard HPLC-glass vials. Samples were analyzed using LC-MS/MS conditions as described above. Peaks of PK samples were quantified using the calibration curve using AB Sciex Multiquant Software 3.0. The accuracy of the calibration curve was determined using QCs independently prepared. PK parameters were determined using a non-compartmental analysis with PKSolver.23
# Figure S1: Plasma concentration curves for cystobactamid 42. Error bars were determined via standard deviation of two cassette experiments per compound (n=2). […]
# (1 picture or pasted object on this page, not shown here)
# E. faec. DSM-17050 (VRE) = assay: MIC assay; format: cell-based, Enterococcus faecium; conditions: Enterococcus, read-out: MIC E. faec. DSM-17050 (VRE)
# Description: as §1, §2, §3, §4, §5, §6
smiles,measurement,setting,value
C#CC[C@H](NC(=O)c1ccc(NC(=O)c2ccc(C#N)cc2)cc1)C(=O)Nc1ccc(NC(=O)c2ccc(C(=O)Nc3ccc(C(=O)O)cc3)c(O)c2OC(C)C)cc1 [Cmpd. 42],T1/2 MICROSOMES (M),[1],> 1 h
same,MIC,E. ae. CIP 106754,1 µg/mL
same,"antibacterial activity on the pathogen panel, in words",ESKAPE strains,exceptional activity
same,T1/2 PLASMA (H),[2]; human plasma,> 4 h
same,T1/2 PLASMA (M),[2]; mouse plasma,> 4 h
same,T1/2 MICROSOMES (M),[3],> 1 h
same,MIC,K. pneum. CIP-104298,< 0.03 µg/mL
same,MIC,S. aur. ATCC-29213,0.06 µg/mL
same,MIC,K. pneum. R-1525,< 0.03 µg/mL
same,MIC,A. baum. CIP-105742,< 0.03 µg/mL
same,MIC,P. ae. PA14ΔmexAB,< 0.03 µg/mL
same,MIC,E. cloacae ATCC BAA-2468,0.25 µg/mL
same,MIC,K. pneum. KP10581,< 0.03 µg/mL
same,MIC,[4],< 0.03 µg/mL
same,MIC,E. coli LM705,0.06 µg/mL
same,MIC,A. baum. R835,0.5 µg/mL
same,MIC,A. baum. ATCC BAA-1710,0.03 to 0.05 µg/mL
same,MIC,E. coli ATCC-25922,< 0.03 µg/mL
same,MIC,A. baum. DSM-30008,0.125 µg/mL
same,MIC,A. baum. CIP-107292,0.05 µg/mL
same,MIC,P. ae. PA14,4 µg/mL
same,clearance,"[5]; CD-1, mouse, iv, 1 mg/kg",17.9 ± 12.3 mL/min/kg
same,C0,"[5]; CD-1, mouse, iv, 1 mg/kg, concentration at t = 0 h, CD-1 mice, 1 mg/kg IV",~2200 ng/mL
same,Vd,"[5]; CD-1, mouse, iv, 1 mg/kg, volume of distribution, CD-1 mice, 1 mg/kg IV, read-out: Vz",~1.4 L/kg
same,AUC(0-t),"[5]; mouse, CD-1 mice, 1 mg/kg IV",1210 ± 832 ng·h/mL
same,half-life,"[5]; mouse, CD-1 mice, 1 mg/kg IV",0.88 ± 0.1 h
same,MIC,E. faec. DSM-17050 (VRE),< 0.03 µg/mL
